Measurements taken from patent US20220380761A1, “ORAL DELIVERY OF OLIGONUCLEOTIDES” (CiVi Biopharma, Inc., priority 2021, published 2022).
l = locked nucleic acid (LNA); d = 2'-deoxy (DNA)

Key:
[1] = Oral capsule toxicokinetic study of CIVI 008 using 5-CNAC as carrier; type: in vivo, Cynomolgus monkey; conditions: for AUC with increasing dose of CIVI 008 / Cmax with increasing dose of CIVI 008: constant dose of 5-CNAC
Source text: The objectives of this study were to determine the ability of 5-CNAC [Disodium N-(5-Chorosalicyloyl)-8-aminocaprylate] to facilitate oral uptake of CIVI 008 and to determine the manufacture method and dosing paradigm of CIVI 008/5-CNAC capsules that provide the most efficient oral uptake of CIVI 008 when administered to Cynomolgus monkeys of Mauritian origin.
Study outline: A total of 10 Cynomolgus monkeys (5 males and 5 females) were each dosed with 2 group A capsules on Monday and Wednesday in week 1, followed by 4 days of dosing holiday. This Monday and Wednesday dosing scheme was continued in weeks 2, 3, 5, 6, 7, 8, 13, 14, 15 and 17 using 2 group B-capsules per dose occasion in week 2, and 1 capsule of groups C to K per dose occasion in their respective weeks. During the dosing period, blood samples for PK analysis were drawn pre-dose and 0.5, 1.5, 3 and 5 hours post-dosing on Mondays and Wednesdays. Samples for clinical chemistry and hematology (see example 1) were taken pre-study and end of study.

plasma LDL = assay: Plasma LDL after once-daily oral CIVI 008/5-CNAC capsule for 49 days; type: in vivo, Cynomolgus monkey; conditions: 5-CNAC vs SNAC
Description: The objectives of this study were to determine the ability of 5-CNAC [disodium N-(5-chorosalicyloyl)-8-aminocaprylate] to reduce plasma PCSK9 when dosed once daily for 7 weeks. The half-life of CIVI 008 in the liver of non-human primates is between 2 to 3 weeks, so after 7-weeks of dosing liver concentrations are expected to reach >80% of its steady state level.
Study outline: Dry blended capsules (20 mg CIVI 008/200 mg 5-CNAC) were manufactured from uniform dry blended formulations, that were filled into enterically coated Size 0, hard shell gelatin capsules. A total of 10 Cynomolgus monkeys (5 males and 5 females) were each administered a single capsule by oral gavage once daily for 49 days. […] During the dosing period, blood samples for PK analysis were drawn pre-dose and 0.5, 1.5, 3 and 5 hours post-dosing at study start and at day 49. Blood samples for PCSK9 and lipid analysis were drawn on week −2 and −1 pre-study, pre-dose on Day 1 and weekly thereafter for the duration of the study. Samples for clinical chemistry, coagulation and hematology were taken on week −2 and −1 pre-study, and on Day 22 and 49.

[2] = Oral capsule PK study of CIVI 008 without GalNAc using 5-CNAC as carrier; type: in vivo, Cynomolgus monkey; conditions: single oral capsule 20 mg/200 mg 5-CNAC
Source text: As shown in previous Examples 1 and 3, orally dosed CIVI 008 with GalNAc is rapidly internalized in the liver by the GalNAc receptor, with very little CIVI 008 escaping into general circulation at doses below that required for saturation of the GalNAc receptor. In many instances the objective is to target genes that are expressed in organs other than the liver. […] The objective of this study was to determine the systemic exposure of orally administered CIVI 008 without the GalNAc conjugate, and to compare the exposure to that of a similar oral dose of CIVI 008 with GalNAc.
Study outline: Dry blended capsules (20 mg CIVI 008 without GalNAc/200 mg 5-CNAC) were manufactured from uniform dry blended formulations, that were filled into enterically coated Size 0, hard shell gelatin capsules. A total of 10 Cynomolgus monkeys (5 males and 5 females) were each administered a single capsule by oral gavage, and blood samples for PK analysis were drawn pre-dose and 0.5, 1.5, 3 and 5 hours post-dosing.

[3] = Oral capsule PK study of an oligo against Factor VII, with or without GalNAc, using 5-CNAC as carrier; type: in vivo, Cynomolgus monkey
Description: Study outline: Dry blended capsules (20 mg Factor FVII with or without GalNac/200 mg 5-CNAC) were manufactured from uniform dry blended formulations, that were filled into enterically coated Size 0, hard shell gelatin capsules. A total of 10 Cynomolgus monkeys (5 males and 5 females) were each administered a single capsule of either oligo by oral gavage, and blood samples for PK analysis were drawn pre-dose and 0.5, 1.5, 3 and 5 hours post-dosing.

[4] = Repeat-dose toxicity of CIVI 008 formulated with SNAC (GLP); type: in vivo, Cynomolgus monkey
[5] = Half-life of CIVI 008 in the liver; type: in vivo, non-human primates; conditions: expected after 7-weeks of once daily dosing
[6] = cynomolgus monkey, in vivo
Description: (§2) The objectives of this study were to evaluate the toxicity and reversibility of CIVI 008 and to determine the pharmacology, plasma exposure and target organ accumulation of CIVI 008 when administered daily by oral capsule to the Cynomolgus monkey of Mauritian origin for 42 days compared to administration by the subcutaneous route administered once every two weeks (investigated previously).
(§3) Oral Capsule: Capsules containing CIVI 008 (10 mg)/SNAC (100 mg) were manufactured as uniform dry blend formulations, that were filled into Size 4 hard shell gelatin capsules that were enterically coated post fill.

plasma LDL-cholesterol = assay: Plasma LDL cholesterol change from baseline after daily oral CIVI 008/SNAC capsules; type: in vivo, Cynomolgus monkey
Source text: (§1) Clinical chemistry, PCSK9 and lipids: urea nitrogen, creatinine, total protein, albumin, globulin, albumin:globulin ratio, total bilirubin, aspartate aminotransferase, alanine aminotransferase, alkaline phosphatase, gamma glutamyltransferase, creatine kinase, calcium, inorganic phosphorus, sodium, potassium, chloride, high density lipoproteins, low density lipoprotein, very low density lipoprotein, total cholesterol, triglycerides.

PCSK9 = PCSK9 change from baseline after daily oral CIVI 008/SNAC capsules for 42 days; type: in vivo, Cynomolgus monkey; conditions: control animals, 20 mg CIVI 008 capsules without SNAC, daily x 42
Source text: as §1

[7] = cynomolgus monkey, in vivo, po
Description: as §2, §3

[8] = CIVI 008 with 5-CNAC capsule, stated as specific aspect
[9] = dose range 5 mg to 30 mg, 200 mg 5-CNAC
[10] = single oral capsule 20 mg/200 mg 5-CNAC

O=C(O)CCCCCCCNC(=O)c1cc(Cl)ccc1O [5-CNAC, N-(5-chlorosalicyloyl)-8-aminocaprylic acid]
efficiency of carrier in facilitating oral uptake of CIVI 008 ([1]; 5-CNAC vs SNAC): more efficient of the two carriers | efficiency in facilitating oral uptake of CIVI 008 (plasma LDL): substantially more efficient than SNAC

CIVI 008 without GalNAc: Unconjugated form of CIVI 008, 16 nt LNA gapmer, SEQ ID NO: 134, without GalNAc moiety (AATGCTACAAAACCCA; LNA gapmer stated, pattern not given here)
AUC relative to similar dose of CIVI 008 with GalNac [2]: ~8 fold | Cmax relative to similar dose of CIVI 008 with GalNac [2]: ~8 fold | concentrations in the plasma [2]: measurable concentrations | plasma profile compared to CIVI 008 with GalNAc [2]: very similar

GalNac conjugated Factor FVII oligo: 13 nt LNA gapmer antisense oligo against Factor VII, SEQ ID NO: 158, with GalNAc moiety (antisense GCACCACGGTCCA; sugars from the 5' end l2 d8 l3, all phosphorothioate, methylation of C not given here; GalNAc conjugate attached, further chemistry not fully specified)
species found in plasma samples ([3]; 0.5 hr samples): parent compound | species found in plasma samples ([3]; 1.5 hr samples): mixture of parent compound and loss of carbohydrate moiety | species found in plasma samples ([3]; 3 hr samples): progressive loss of carbohydrate moiety | species found in plasma samples ([3]; 5 hr samples): progressive loss of carbohydrate moiety

cepadacursen (AATGCTACAAAACCCA; LNA gapmer with GalNAc conjugate, pattern not given here) [CIVI 008]
histopathological changes in intestinal tract (duodenum, jejunum, ileum and colon) ([4]; QD oral dosing for 42 days): no local histopathological changes | macroscopic or microscopic findings suggesting local or systemic effects ([4]; end of dosing and end of recovery): no macroscopic or microscopic findings | organ weight changes ([4]; following oral capsule administration): no organ weight changes | AUC0-5 with 5-CNAC carrier compared to similar dose with SNAC carrier ([1]; 5-CNAC vs SNAC (Example 1)): increase | Cmax with 5-CNAC carrier compared to similar dose with SNAC carrier ([1]; 5-CNAC vs SNAC (Example 1)): increase | increase of the mean AUC0-50 with respect to corresponding composition comprising SNAC instead of 5-CNAC [1, 8]: about 80% | increase of the mean Cmax with respect to corresponding composition comprising SNAC instead of 5-CNAC [1, 8]: about 110% | AUC with increasing dose of CIVI 008 ([1]; dose above 25 mg): more than dose proportional increases | Cmax with increasing dose of CIVI 008 ([1]; dose above 25 mg): more than dose proportional increases | AUC with increasing dose of CIVI 008 ([1]; doses up to 25 mg): dose proportionally up to 25 mg | Cmax with increasing dose of CIVI 008 ([1]; doses up to 25 mg): dose proportionally up to 25 mg | AUC profiles, freeze-dried vs dry blended capsules [1, 9]: very similar | Cmax profiles, freeze-dried vs dry blended capsules [1, 9]: very similar | liver concentrations as share of steady state level [5]: > 80% | liver concentrations, difference between the SQ and PO arms [6]: approximately one | LDL-c reductions (plasma LDL-cholesterol; control animals, 20 mg CIVI 008 capsules without SNAC, throughout the study): fluctuated around baseline values | LDL levels at the end of recovery (plasma LDL-cholesterol; end of recovery): had yet to fully return to baseline | LDL levels at the end of dosing, persistence (plasma LDL-cholesterol; recovery period after 42 days oral dosing with SNAC): maintained for two weeks post-dosing | mean PCSK9 reductions (PCSK9): comparatively small | form of CIVI 008 detected in plasma (HPLC peak) [7]: mixture of parent compound and metabolites | form of CIVI 008 detected in plasma (HPLC retention time) [7]: absorbed intact from the gut | mean Tmax [7]: ≤ 30 min

unconjugated Factor FVII oligo: 13 nt LNA gapmer antisense oligo against Factor VII, SEQ ID NO: 158, without GalNAc moiety (antisense GCACCACGGTCCA; sugars from the 5' end l2 d8 l3, all phosphorothioate, methylation of C not given here)
AUC relative to GalNac conjugated Factor FVII oligo [3, 10]: ~3.5 fold | Cmax relative to GalNac conjugated Factor FVII oligo [3, 10]: ~3.5 fold
